According to ChEMBL document CHEMBL1201862, “PubChem BioAssay data set” (2004):
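Interpolation was linear, between the two tested concentrations surrounding the appropriate level; five concentrations were tested over 48 hours in 96-well plates. GI50: concentration for 50% inhibition of growth.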 Active and inactive are the calls of the source. No stated cut-off is given here; in the data, active = GI50 up to about 1.1 µM and inactive = higher.

Key:
Assay in all cases: NCI tumour cell line growth inhibition, 48 h
A498 = system: A498
CAKI-1 = system: CAKI-1
HL-60 = system: HL-60
Hs-578T = system: Hs-578T
LOX IMVI = system: LOX IMVI
MCF7 = system: MCF7
NCI-H226 = system: NCI-H226
NCI-H23 = system: NCI-H23
NCI-H460 = system: NCI-H460
PC-3 = system: PC-3
SF-268 = system: SF-268
SF-295 = system: SF-295
SF-539 = system: SF-539
SK-MEL-28 = system: SK-MEL-28
SK-MEL-5 = system: SK-MEL-5
SK-OV-3 = system: SK-OV-3

C=C1C(=O)C2=CC1CCC(=O)C1(C)CCC(OC(C)=O)C(C)(C)C1CC2O (configuration not stated)
GI50 (A498): 3.18 µM (inactive)
GI50 (CAKI-1): 1.76 µM (inactive)
GI50 (HL-60): 0.288 µM (active)
GI50 (Hs-578T): 3.58 µM (inactive)
GI50 (LOX IMVI): 1.14 µM (inactive)
GI50 (MCF7): 0.798 µM (active)
GI50 (NCI-H226): 7.76 µM (inactive)
GI50 (NCI-H23): 2.64 µM (inactive)
GI50 (NCI-H460): 1.63 µM (inactive)
GI50 (PC-3): 7.19 µM (inactive)
GI50 (SF-268): 3.4 µM (inactive)
GI50 (SF-295): 9.31 µM (inactive)
GI50 (SF-539): 2.1 µM (inactive)
GI50 (SK-MEL-28): 3.66 µM (inactive)
GI50 (SK-MEL-5): 1.82 µM (inactive)
GI50 (SK-OV-3): 8.95 µM (inactive)

CCOC(=O)C1(Cc2c[nH]c3ccccc23)C(O)CCCN1C(C)=O (configuration not stated)
GI50 (A498): > 100 µM (inactive)
GI50 (CAKI-1): > 100 µM (inactive)
GI50 (HL-60): > 100 µM (inactive)
GI50 (Hs-578T): > 100 µM (inactive)
GI50 (LOX IMVI): > 100 µM (inactive)
GI50 (MCF7): > 100 µM (inactive)
GI50 (NCI-H226): > 100 µM (inactive)
GI50 (NCI-H23): > 100 µM (inactive)
GI50 (NCI-H460): > 100 µM (inactive)
GI50 (PC-3): > 100 µM (inactive)
GI50 (SF-268): > 100 µM (inactive)
GI50 (SF-295): > 100 µM (inactive)
GI50 (SF-539): > 100 µM (inactive)
GI50 (SK-MEL-28): > 100 µM (inactive)
GI50 (SK-MEL-5): > 100 µM (inactive)
GI50 (SK-OV-3): > 100 µM (inactive)

O=P1(N(CCCl)CCCl)Oc2c(Cl)cc(Cl)c(Cl)c2Cc2c(Cl)c(Cl)cc(Cl)c2O1
GI50 (A498): > 100 µM (inactive)
GI50 (CAKI-1): 64.9 µM (inactive)
GI50 (HL-60): > 100 µM (inactive)
GI50 (Hs-578T): 30.3 µM (inactive)
GI50 (LOX IMVI): 39.8 µM (inactive)
GI50 (MCF7): 64.7 µM (inactive)
GI50 (NCI-H226): 26.9 µM (inactive)
GI50 (NCI-H23): 21.4 µM (inactive)
GI50 (NCI-H460): 25.2 µM (inactive)
GI50 (PC-3): 23.2 µM (inactive)
GI50 (SF-268): > 100 µM (inactive)
GI50 (SF-295): 22.7 µM (inactive)
GI50 (SF-539): > 100 µM (inactive)
GI50 (SK-MEL-28): > 100 µM (inactive)
GI50 (SK-MEL-5): 77.3 µM (inactive)
GI50 (SK-OV-3): 43.2 µM (inactive)

COc1cc(Oc2nc3ccc(C(F)(F)F)cc3nc2-c2ccccc2)cc(OC)c1OC
GI50 (A498): 32.9 µM (inactive)
GI50 (CAKI-1): 5.06 µM (inactive)
GI50 (HL-60): 31.8 µM (inactive)
GI50 (Hs-578T): 21.9 µM (inactive)
GI50 (LOX IMVI): 18.4 µM (inactive)
GI50 (MCF7): 8.18 µM (inactive)
GI50 (NCI-H226): 33.3 µM (inactive)
GI50 (NCI-H23): 35.4 µM (inactive)
GI50 (NCI-H460): 34 µM (inactive)
GI50 (PC-3): 22.6 µM (inactive)
GI50 (SF-268): 22.8 µM (inactive)
GI50 (SF-295): 9.48 µM (inactive)
GI50 (SF-539): 19.7 µM (inactive)
GI50 (SK-MEL-28): 33.9 µM (inactive)
GI50 (SK-MEL-5): 14.5 µM (inactive)
GI50 (SK-OV-3): 12.4 µM (inactive)

Cc1c(-c2ccccc2)c(C#N)c2nnn(-c3cccc(Cl)c3)c(=O)n12
GI50 (A498): 26.2 µM (inactive)
GI50 (CAKI-1): > 100 µM (inactive)
GI50 (HL-60): > 100 µM (inactive)
GI50 (Hs-578T): > 100 µM (inactive)
GI50 (LOX IMVI): 87.1 µM (inactive)
GI50 (MCF7): 43.9 µM (inactive)
GI50 (NCI-H226): 48.5 µM (inactive)
GI50 (NCI-H23): > 100 µM (inactive)
GI50 (NCI-H460): > 100 µM (inactive)
GI50 (PC-3): 26.5 µM (inactive)
GI50 (SF-268): 80.5 µM (inactive)
GI50 (SF-295): 39.6 µM (inactive)
GI50 (SF-539): 32.9 µM (inactive)
GI50 (SK-MEL-28): > 100 µM (inactive)
GI50 (SK-MEL-5): 71.1 µM (inactive)
GI50 (SK-OV-3): 37.8 µM (inactive)

CC1CC(=O)Nc2ccccc2N1C(=O)C1CC1 (configuration not stated)
GI50 (A498): > 100 µM (inactive)
GI50 (CAKI-1): > 100 µM (inactive)
GI50 (HL-60): > 100 µM (inactive)
GI50 (Hs-578T): > 100 µM (inactive)
GI50 (LOX IMVI): > 100 µM (inactive)
GI50 (MCF7): > 100 µM (inactive)
GI50 (NCI-H226): > 100 µM (inactive)
GI50 (NCI-H23): > 100 µM (inactive)
GI50 (NCI-H460): > 100 µM (inactive)
GI50 (PC-3): > 100 µM (inactive)
GI50 (SF-268): > 100 µM (inactive)
GI50 (SF-295): > 100 µM (inactive)
GI50 (SF-539): > 100 µM (inactive)
GI50 (SK-MEL-28): > 100 µM (inactive)
GI50 (SK-MEL-5): > 100 µM (inactive)
GI50 (SK-OV-3): > 100 µM (inactive)

N#CCCN(CCC#N)c1ccc(/C=C2\SC(=S)NC2=O)cc1
GI50 (A498): 57.1 µM (inactive)
GI50 (CAKI-1): 23 µM (inactive)
GI50 (HL-60): > 100 µM (inactive)
GI50 (Hs-578T): > 100 µM (inactive)
GI50 (LOX IMVI): 34.6 µM (inactive)
GI50 (MCF7): > 100 µM (inactive)
GI50 (NCI-H226): > 100 µM (inactive)
GI50 (NCI-H23): > 100 µM (inactive)
GI50 (NCI-H460): > 100 µM (inactive)
GI50 (PC-3): > 100 µM (inactive)
GI50 (SF-268): > 100 µM (inactive)
GI50 (SF-295): 39.4 µM (inactive)
GI50 (SF-539): > 100 µM (inactive)
GI50 (SK-MEL-28): > 100 µM (inactive)
GI50 (SK-MEL-5): > 100 µM (inactive)
GI50 (SK-OV-3): > 100 µM (inactive)
